Data on 7 compounds can be found in paper PMC9189845, “Structure–Activity Relationships of 8-Hydroxyquinoline-Derived Mannich Bases with Tertiary Amines Targeting Multidrug-Resistant Cancer” (Journal of Medicinal Chemistry, 2022).

One experiment deals with A431-B1 cells. Kind of experiment: PrestoBlue viability assay, A431-B1 (A431-ABCB1) cells.
In the next experiment the test system is A431 cells. Kind of experiment: PrestoBlue viability assay, A431 cells. The settings on record: Homo sapiens.
In a further experiment the test system is MES-SA/Dx5 cells. Put plainly: PrestoBlue viability assay, MES-SA/Dx5 cells (MDR, P-gp positive). Particulars: for IC50: Homo sapiens; for SR_TQ: selectivity ratio MES-SA vs MES-SA/Dx5, with TQ; for SR: selectivity ratio MES-SA vs MES-SA/Dx5, without TQ.
The subject of another experiment is MES-SA cells. Put plainly: PrestoBlue viability assay, MES-SA cells. The settings on record: Homo sapiens, MES-SA.
Where [1] appears, read: 72 h, read-out: IC50 / µM A431-B1, 72 h incubation.
The mark [2] stands for this setting: read-out: pIC50 A431-B1, SARM figure (converted).
Where [3] appears, read: A-431, 72 h, read-out: IC50 / µM A431, 72 h incubation.
[4] abbreviates: A-431, read-out: pIC50 A431, SARM figure (converted).
Where [5] appears, read: MES-SA/Dx5, 72 h, read-out: IC50 / μM MES-SA/Dx5, absence of TQ, 72 h incubation.
[6] abbreviates: MES-SA/Dx5, read-out: IC50 / μM MES-SA/Dx5 (values in parentheses), presence of 1 μM P-gp inhibitor tariquidar (TQ).
The mark [7] stands for this setting: MES-SA/Dx5, read-out: pIC50 value MES-SA/Dx5 + TQ, MES-SA/Dx5 cells, with TQ (converted).
The mark [8] stands for this setting: MES-SA/Dx5, read-out: pIC50 value MES-SA/Dx5, MES-SA/Dx5 cells, without TQ (converted).
[9] abbreviates: 72 h, read-out: IC50 / μM MES-SA, absence of TQ, 72 h incubation.
[10] abbreviates: read-out: IC50 / μM MES-SA (values in parentheses), presence of 1 μM P-gp inhibitor tariquidar (TQ).
[11] abbreviates: read-out: pIC50 value MES-SA+TQ, MES-SA cells, with TQ (converted).
The mark [12] stands for this setting: read-out: pIC50 value MES-SA, MES-SA cells, without TQ (converted).
Setting [13] is: read-out: pIC50 MES-SA, absence of TQ (converted), SARM figure.
The mark [14] stands for this setting: read-out: pIC50 MES-SA_TQ, presence of 1 μM TQ (converted), SARM figure.

Read-outs that look alike come from different tables or passages of the source.

Regarding `CCCOCc1cc(CN2CCN(C)CC2)c(O)c2ncccc12` [Compound 37], the IC50 in the experiment with A431-B1 cells (setting [1]) was 6.19 ± 1.73 µM; with A431-B1 cells (setting [2]), 5.89 µM; with A431 cells (setting [3]) it was 19.9 ± 9.14 µM; in the experiment with A431 cells (setting [4]), 18.2 µM; in the experiment with MES-SA/Dx5 cells (setting [5]) it was 3.24 ± 0.19 µM; with MES-SA/Dx5 cells (setting [6]), 7.41 ± 0.01 µM. Also, the IC50 in the experiment on MES-SA/Dx5 cells (setting [7]) was 7.41 µM; in the experiment on MES-SA/Dx5 cells (setting [8]), 3.24 µM; in the experiment with MES-SA cells (setting [9]), 13.5 ± 0.86 µM; with MES-SA cells (setting [10]), 12.3 ± 0.28 µM; with MES-SA cells (setting [11]), 12.3 µM; in the experiment on MES-SA cells (setting [12]), 13.5 µM. Also, in the experiment with MES-SA/Dx5 cells, the SR_TQ is given as 1.66. For the same compound, the SR in the experiment with MES-SA/Dx5 cells was 4.17.
For `COCc1cc(CN2CCN(c3ccccc3)CC2)c(O)c2ncccc12` [Compound 39], the IC50 in the experiment on A431-B1 cells (setting [1]) is 2.33 ± 0.35 µM; in the experiment with A431-B1 cells (setting [2]), 2.29 µM; in the experiment on A431 cells (setting [3]), 9.99 ± 4.76 µM; in the experiment on A431 cells (setting [4]), 8.91 µM; in the experiment with MES-SA/Dx5 cells (setting [5]), 0.48 ± 0.07 µM; in the experiment on MES-SA/Dx5 cells (setting [6]), 0.85 ± 0.08 µM. Further, the IC50 in the experiment with MES-SA/Dx5 cells (setting [7]) is 0.851 µM; in the experiment with MES-SA/Dx5 cells (setting [8]), 0.479 µM; in the experiment on MES-SA cells (setting [9]), 1.08 ± 0.15 µM; in the experiment with MES-SA cells (setting [10]) it was 1.2 ± 0.05 µM; in the experiment on MES-SA cells (setting [11]), 1.2 µM; in the experiment with MES-SA cells (setting [12]), 1.07 µM. In addition, in the experiment with MES-SA/Dx5 cells, the SR_TQ is on record as 1.41. In addition, in the experiment on MES-SA/Dx5 cells, the SR is listed as 2.23.
As for `CCOCc1cc(CN2CCN(c3ccccc3)CC2)c(O)c2ncccc12` [Compound 40], the IC50 in the experiment on A431-B1 cells (setting [1]) was 1.94 ± 0.19 µM; in the experiment on A431-B1 cells (setting [2]), 1.91 µM; in the experiment on A431 cells (setting [3]), 6.24 ± 1.95 µM; with A431 cells (setting [4]), 5.89 µM; in the experiment on MES-SA/Dx5 cells (setting [5]) it was 0.34 ± 0.04 µM; with MES-SA/Dx5 cells (setting [6]), 1.05 ± 0.1 µM. For the same compound, the IC50 in the experiment on MES-SA/Dx5 cells (setting [7]) was 1.05 µM; in the experiment with MES-SA/Dx5 cells (setting [8]), 0.339 µM; in the experiment on MES-SA cells (setting [9]) it was 1.27 ± 0.15 µM; with MES-SA cells (setting [10]) it was 1.62 ± 0.005 µM; with MES-SA cells (setting [11]) it was 1.62 µM; in the experiment with MES-SA cells (setting [12]), 1.26 µM. Further, the SR_TQ in the experiment on MES-SA/Dx5 cells is 1.54. Also, the SR with MES-SA/Dx5 cells was 3.72.
`CCCOCc1cc(CN2CCN(c3ccccc3)CC2)c(O)c2ncccc12` [Compound 41]: the IC50 is 2.41 ± 0.37 µM in the experiment with A431-B1 cells (setting [1]); 2.4 µM in the experiment on A431-B1 cells (setting [2]); 5.69 ± 0.76 µM in the experiment with A431 cells (setting [3]); 5.62 µM with A431 cells (setting [4]); 0.24 ± 0.03 µM in the experiment with MES-SA/Dx5 cells (setting [5]); 0.83 ± 0.01 µM in the experiment on MES-SA/Dx5 cells (setting [6]). The IC50 was 0.955 µM in the experiment on MES-SA/Dx5 cells (MES-SA/Dx5, read-out: pIC50 Dx5_TQ, presence of 1 μM TQ (converted), SARM figure); 0.832 µM with MES-SA/Dx5 cells (setting [7]); 0.24 µM in the experiment on MES-SA/Dx5 cells (setting [8]); 1.45 ± 0.13 µM in the experiment on MES-SA cells (setting [9]); 1.45 ± 0.07 µM in the experiment on MES-SA cells (setting [10]); 1.45 µM in the experiment with MES-SA cells (setting [13]). The IC50 in the experiment on MES-SA cells (setting [14]), with MES-SA cells (setting [11]) and in the experiment on MES-SA cells (setting [12]) was 1.45 µM throughout. Moreover, the SR_TQ in the experiment on MES-SA/Dx5 cells is on record as 1.74. Besides, the SR in the experiment on MES-SA/Dx5 cells was determined as 6.01.
With `CC(C)OCc1cc(CN2CCN(c3ccccc3)CC2)c(O)c2ncccc12` [Compound 42], the IC50 in the experiment on A431-B1 cells (setting [1]) is 1.84 ± 0.48 µM; in the experiment on A431-B1 cells (setting [2]) it was 1.78 µM; with A431 cells (setting [3]), 7.35 ± 2.49 µM; with A431 cells (setting [4]), 6.92 µM; in the experiment with MES-SA/Dx5 cells (setting [5]), 0.25 ± 0.05 µM; with MES-SA/Dx5 cells (setting [6]) it was 0.66 ± 0.13 µM. For the same compound, the IC50 is 0.646 µM in the experiment with MES-SA/Dx5 cells (setting [7]); 0.245 µM with MES-SA/Dx5 cells (setting [8]); 1.06 ± 0.19 µM in the experiment on MES-SA cells (setting [9]); 1.01 ± 0.16 µM in the experiment with MES-SA cells (setting [10]); 1 µM in the experiment with MES-SA cells (setting [11]); 1.05 µM in the experiment with MES-SA cells (setting [12]). The SR_TQ in the experiment on MES-SA/Dx5 cells stood at 1.54. In addition, the SR in the experiment with MES-SA/Dx5 cells amounted to 4.24.
For `Oc1c(CN2CCN(c3ccccn3)CC2)cc(Cl)c2cccnc12` [Compound 43], the IC50 with A431-B1 cells (setting [1]) was 8.06 ± 2.89 µM; in the experiment on A431-B1 cells (setting [2]) it was 7.59 µM; in the experiment on A431 cells (setting [3]), 9.41 ± 1.41 µM; in the experiment with A431 cells (setting [4]) it was 9.33 µM; in the experiment on MES-SA/Dx5 cells (setting [5]), 0.33 ± 0.05 µM; in the experiment on MES-SA/Dx5 cells (setting [6]), 1.23 ± 0.05 µM. Moreover, the IC50 in the experiment on MES-SA/Dx5 cells (setting [8]) was 0.331 µM; with MES-SA cells (setting [9]), 2.19 ± 0.12 µM; with MES-SA cells (setting [10]), 2.19 ± 0.17 µM; with MES-SA cells (setting [13]), 2.19 µM; in the experiment on MES-SA cells (setting [14]), 2.19 µM; in the experiment with MES-SA cells (setting [11]), 2.19 µM. The IC50 with MES-SA cells (setting [12]) was 2.19 µM. Also, the SR_TQ in the experiment on MES-SA/Dx5 cells came out at 1.78. In addition, in the experiment on MES-SA/Dx5 cells, the SR amounted to 6.55.
`Oc1c(CN2CCN(c3ccc(F)cc3)CC2)cc(Cl)c2cccnc12` [Compound 44]: the IC50 in the experiment with A431-B1 cells (setting [1]) was 3.25 ± 0.94 µM; in the experiment on A431-B1 cells (setting [2]), 3.09 µM; with A431 cells (setting [3]), 4.04 ± 0.39 µM; in the experiment with A431 cells (setting [4]) it was 3.98 µM; in the experiment on MES-SA/Dx5 cells (setting [5]) it was 0.25 ± 0.01 µM; with MES-SA/Dx5 cells (setting [6]) it was 0.65 ± 0.05 µM. Moreover, the IC50 in the experiment on MES-SA/Dx5 cells (setting [7]) was 0.646 µM; in the experiment on MES-SA/Dx5 cells (setting [8]), 0.245 µM; in the experiment on MES-SA cells (setting [9]) it was 1.61 ± 0.3 µM; in the experiment on MES-SA cells (setting [10]) it was 1.75 ± 0.16 µM; in the experiment with MES-SA cells (setting [11]), 1.74 µM; in the experiment with MES-SA cells (setting [12]) it was 1.58 µM. Further, the “SR (MES-SA_TQ / Dx5_TQ) (values in parentheses)” value with MES-SA/Dx5 cells (fraction of IC50 in P-gp negative vs positive cells, presence of 1 μM TQ) came out at 2.70. Further, the SR_TQ with MES-SA/Dx5 cells is recorded as 2.7. Moreover, in the experiment with MES-SA/Dx5 cells, the SR came out at 6.56.
